Species: Rattus norvegicus
Test: Open TG-GATES - Regimen: Single
Assay type: toxicity, organism-based, Sprague-Dawley
Parameters: regimen Single, gender Male, age 6 weeks
Details: in vivo, sc, 0 mg/kg, route subcutaneous injection, dose 0 ug/Kg, dose level Control; for APTT / Bas / Eos / Fbg / Hb / Ht / Lym / MCH / MCHC / MCV / Mono / Neu / PT / Plat / RBC / Ret / WBC: tissue Blood; for KIDNEY_L / KIDNEY_R / KIDNEY_TOTAL: tissue Kidney; for LIVER: tissue Liver; for A/G / ALP / ALT / AST / BUN / CRE / Ca / Cl / DBIL / GLC / IP / K / LDH / Na / PL / RALB / TBIL / TC / TG / TP / gamma-GTP: tissue Plasma

`CC(=O)O.N=C(N)NCCC[C@@H](NC(=O)[C@@H]1CCCN1C(=O)[C@@H]1CSSCCC(=O)N[C@@H](Cc2ccc(O)cc2)C(=O)N[C@@H](Cc2ccccc2)C(=O)N[C@@H](CCC(N)=O)C(=O)N[C@@H](CC(N)=O)C(=O)N1)C(=O)NCC(N)=O` [DESMOPRESSIN ACETATE] gave a TERMINAL_BW (3 h) of 211.5 g, an APTT (3 h) of 16.1 s and a Bas (3 h) of 0%. The Eos (3 h) was 0.8%, the Fbg (3 h) was 234.4 mg/dL and the Hb (3 h) was 12.9 g/dL. The Ht (3 h) was 39.7%, the Lym (3 h) was 77.8% and the MCH (3 h) was 21.7 pg. The MCHC (3 h) was 32.5%, the MCV (3 h) was 66.7 fL and the Mono (3 h) was 5.8%. For the same compound, the Neu (3 h) was 16%, the PT (3 h) was 12.1 s and the Plat (3 h) was 119.2 x10_4/uL. The RBC (3 h) was 595 x10_4/ul, the Ret (3 h) was 11.1% and the WBC (3 h) was 80.6 x10_2/uL. For the same compound, the KIDNEY_L (3 h) was 0.9 g, the KIDNEY_R (3 h) was 1 g and the KIDNEY_TOTAL (3 h) was 1.9 g. It also gave an LIVER (3 h) of 10.2 g, an A/G (3 h) of 2.1 and an ALP (3 h) of 1272 IU/L. The ALT (3 h) was 37.8 IU/L, the AST (3 h) was 66.8 IU/L and the BUN (3 h) was 12.2 mg/dL. It also gave a CRE (3 h) of 0.3 mg/dL, a Ca (3 h) of 11.1 mg/dL and a Cl (3 h) of 104.2 meq/L. It also gave a DBIL (3 h) of 0.01 mg/dL, a GLC (3 h) of 188.6 mg/dL and an IP (3 h) of 9.2 mg/dL. It also gave a K (3 h) of 4.8 meq/L, an LDH (3 h) of 104 IU/L and a Na (3 h) of 138.6 meq/L. It also gave a PL (3 h) of 149.4 mg/dL, an RALB (3 h) of 3.7 g/dL and a TBIL (3 h) of 0.042 mg/dL. The TC (3 h) was 82.6 mg/dL, the TG (3 h) was 81.6 mg/dL and the TP (3 h) was 5.5 g/dL. For the same compound, the gamma-GTP (3 h) was 0.8 IU/L, the TERMINAL_BW (6 h) was 204.5 g and the APTT (6 h) was 18 s. The Bas (6 h) was 0%, the Eos (6 h) was 1.2% and the Fbg (6 h) was 239 mg/dL. The Hb (6 h) was 12.9 g/dL, the Ht (6 h) was 39.7% and the Lym (6 h) was 75.6%. The MCH (6 h) was 21 pg, the MCHC (6 h) was 32.5% and the MCV (6 h) was 64.6 fL. For the same compound, the Mono (6 h) was 8.6%, the Neu (6 h) was 14.4% and the PT (6 h) was 12.6 s. It also gave a Plat (6 h) of 109.8 x10_4/uL, an RBC (6 h) of 616 x10_4/ul and a Ret (6 h) of 8.8%. For the same compound, the WBC (6 h) was 104 x10_2/uL, the KIDNEY_L (6 h) was 0.9 g and the KIDNEY_R (6 h) was 0.9 g. For the same compound, the KIDNEY_TOTAL (6 h) was 1.8 g, the LIVER (6 h) was 9.2 g and the A/G (6 h) was 2.1. It also gave an ALP (6 h) of 1325 IU/L, an ALT (6 h) of 32 IU/L and an AST (6 h) of 62 IU/L. The BUN (6 h) was 12 mg/dL, the CRE (6 h) was 0.4 mg/dL and the Ca (6 h) was 11.2 mg/dL. The Cl (6 h) was 105.2 meq/L, the DBIL (6 h) was 0.01 mg/dL and the GLC (6 h) was 199.2 mg/dL. It also gave an IP (6 h) of 10 mg/dL, a K (6 h) of 5 meq/L and an LDH (6 h) of 99.4 IU/L. For the same compound, the Na (6 h) was 137.8 meq/L, the PL (6 h) was 145.6 mg/dL and the RALB (6 h) was 3.7 g/dL. The TBIL (6 h) was 0.048 mg/dL, the TC (6 h) was 85.2 mg/dL and the TG (6 h) was 53.6 mg/dL. For the same compound, the TP (6 h) was 5.5 g/dL, the gamma-GTP (6 h) was 1 IU/L and the TERMINAL_BW (9 h) was 199.2 g. It also gave an APTT (9 h) of 16.6 s, a Bas (9 h) of 0% and an Eos (9 h) of 1.2%. It also gave a Fbg (9 h) of 230.8 mg/dL, a Hb (9 h) of 12.8 g/dL and a Ht (9 h) of 39.7%. The Lym (9 h) was 66.6%, the MCH (9 h) was 21.2 pg and the MCHC (9 h) was 32.2%. It also gave an MCV (9 h) of 65.8 fL, a Mono (9 h) of 14% and a Neu (9 h) of 18.2%. It also gave a PT (9 h) of 12.7 s, a Plat (9 h) of 119.2 x10_4/uL and an RBC (9 h) of 603.8 x10_4/ul. It also gave a Ret (9 h) of 9.5%, a WBC (9 h) of 99.4 x10_2/uL and a KIDNEY_L (9 h) of 0.9 g. The KIDNEY_R (9 h) was 0.9 g, the KIDNEY_TOTAL (9 h) was 1.8 g and the LIVER (9 h) was 8.5 g. For the same compound, the A/G (9 h) was 2.1, the ALP (9 h) was 1072.6 IU/L and the ALT (9 h) was 31 IU/L. It also gave an AST (9 h) of 62.2 IU/L, a BUN (9 h) of 11.6 mg/dL and a CRE (9 h) of 0.3 mg/dL. The Ca (9 h) was 10.8 mg/dL, the Cl (9 h) was 105.8 meq/L and the DBIL (9 h) was 0.012 mg/dL. For the same compound, the GLC (9 h) was 189.6 mg/dL, the IP (9 h) was 10.8 mg/dL and the K (9 h) was 5 meq/L. For the same compound, the LDH (9 h) was 88.8 IU/L, the Na (9 h) was 138.2 meq/L and the PL (9 h) was 140 mg/dL. The RALB (9 h) was 3.6 g/dL, the TBIL (9 h) was 0.046 mg/dL and the TC (9 h) was 82.2 mg/dL. For the same compound, the TG (9 h) was 52.4 mg/dL, the TP (9 h) was 5.3 g/dL and the gamma-GTP (9 h) was 0.6 IU/L. It also gave a TERMINAL_BW (24 h) of 222.1 g, an APTT (24 h) of 16.1 s and a Bas (24 h) of 0%. It also gave an Eos (24 h) of 1%, a Fbg (24 h) of 241.7 mg/dL and a Hb (24 h) of 12.7 g/dL. The Ht (24 h) was 39.6%, the Lym (24 h) was 75% and the MCH (24 h) was 21.3 pg. It also gave an MCHC (24 h) of 32.2%, an MCV (24 h) of 66 fL and a Mono (24 h) of 7.8%. For the same compound, the Neu (24 h) was 16.2%, the PT (24 h) was 12.1 s and the Plat (24 h) was 118 x10_4/uL. For the same compound, the RBC (24 h) was 599.6 x10_4/ul, the Ret (24 h) was 9.9% and the WBC (24 h) was 86.4 x10_2/uL. For the same compound, the KIDNEY_L (24 h) was 0.9 g, the KIDNEY_R (24 h) was 1 g and the KIDNEY_TOTAL (24 h) was 1.9 g. It also gave an LIVER (24 h) of 10.6 g, an A/G (24 h) of 2 and an ALP (24 h) of 1741.4 IU/L. The ALT (24 h) was 35.8 IU/L, the AST (24 h) was 65.2 IU/L and the BUN (24 h) was 16.4 mg/dL. For the same compound, the CRE (24 h) was 0.4 mg/dL, the Ca (24 h) was 11.2 mg/dL and the Cl (24 h) was 104.6 meq/L. For the same compound, the DBIL (24 h) was 0 mg/dL, the GLC (24 h) was 192.4 mg/dL and the IP (24 h) was 8.4 mg/dL. It also gave a K (24 h) of 5.3 meq/L, an LDH (24 h) of 138.4 IU/L and a Na (24 h) of 138.6 meq/L. It also gave a PL (24 h) of 156.2 mg/dL, an RALB (24 h) of 3.7 g/dL and a TBIL (24 h) of 0.016 mg/dL. The TC (24 h) was 82.2 mg/dL, the TG (24 h) was 125.2 mg/dL and the TP (24 h) was 5.5 g/dL. For the same compound, the gamma-GTP (24 h) was 1.2 IU/L.

— ChEMBL document CHEMBL3885861, “Open TG-GATES”
